For one data set, the system named is S. aureus (ATCC 6538). Nature of the data set: Antibacterial MIC, standard agar cup diffusion method. Type of data set: cell-based, Staphylococcus aureus. The note with it: Staphylococcus aureus, ATCC6538, 37 °C, 24 h, read-out: MIC S. aureus (Gram-positive). How it is done:
(§1) The antibacterial and antifungal activities of compounds, ketone 1, 2a-j, and 5a-i were evaluated in vitro against S. aureus (ATCC 6538), P. aeruginosa (ATCC 10,145), E. coli (ATCC 8739), and C. albicans (ATCC 10,231). […] Standard strains of Staphylococcus aureus (ATCC 6538), Pseudomonas aeruginosa (ATCC 10,145), and Escherichia coli (ATCC 8739) were obtained from microbiological resource center, Faculty of Agriculture, Ain Shams University, Cairo, Egypt. All isolates were maintained at -70 °C in Trypticase Soya Broth (TSB, Becton, and Dickinson) with 10% glycerol. Prior to inoculation, all isolates were subcultured at 37 °C for 24 h on Trypticase Soya Agar (TSA, Becton, and Dickinson) and TSB, respectively.
(§2) The plates were rotated slowly to ensure uniform distribution of the microorganisms and then allowed to solidify on a flat surface. After solidification, four equidistant and circular wells of 10 mm diameter were carefully punched using a sterile cork bore. Twofold serial dilutions of the tested compounds using DMSO were performed. An equal volume of 100µL of each dilution was applied separately to each well in three replicates using a micropipette. All plates were incubated at 37 °C for 24 h. The inhibition zones were measured, and their average was calculated.

For another data set, the system named is E. coli (ATCC 8739). Described as above. Type of data set: cell-based. The settings on record: Escherichia coli, ATCC8739, 37 °C, 24 h, read-out: MIC E. coli (Gram-negative). How it is done:
as §1, §2

Data set [1] has as its system P. aeruginosa (ATCC 10,145). Described as above. The format is cell-based. The note with it: Pseudomonas aeruginosa, ATCC 10145, 37 °C, 24 h, read-out: MIC P. aeruginosa (Gram-negative). How it is done:
as §1, §2

Data set [2] has as its system C. albicans (ATCC 10,231). Nature of the data set: Antifungal MIC, agar cup diffusion method. The settings on record: Candida albicans, ATCC 10,231, 24 h, Sabouraud agar, 37 °C, read-out: MIC C. albicans (Fungi). Type of data set: cell-based, Candida albicans. Here is the method:
The antibacterial and antifungal activities of compounds, ketone 1, 2a-j, and 5a-i were evaluated in vitro against S. aureus (ATCC 6538), P. aeruginosa (ATCC 10,145), E. coli (ATCC 8739), and C. albicans (ATCC 10,231). […] The antifungal activity of compounds 1, 2a-j, and 5a-i and ketoconazole were determined according to the agar cup diffusion method at Deraya University, Faculty of Pharmacy, Department of Microbiology.
Fungal strains and culture conditions. […] Standard strain of Candida albicans (ATCC 10,231) was obtained from microbiological resource center, Faculty of Agriculture, Ain Shams University, Cairo, Egypt. The isolate was maintained at -70 °C in Trypticase Soya Broth (TSB, Becton, and Dickinson) with 10% glycerol. Prior to inoculation, the isolate was subcultured at 37 °C for 24 h on Trypticase Soya Agar (TSA, Becton, and Dickinson) and TSB, respectively.
as §2

For another data set, the target named is S. aureus DNA gyrase (Staphylococcus aureus, UniProt P0A0K8+P20831). Description: Staphylococcus aureus DNA gyrase supercoiling assay. Type of data set: biochemical. The note with it: supercoiling of relaxed pBR322, 37 °C, 30 min; read-out: S. aureus DNA gyrase IC50 ± SD. Here is the method: As antibacterial agents, fluoroquinolones act by targeting and inhibiting DNA gyrase (topo II) which is an essential enzyme involved in the DNA replication process.
Staphylococcus aureus DNA gyrase was incubated at 37 °C for 30 min in a total reaction volume of 30 μl containing 40 mM HEPES. KOH (pH 7.6), 10 mM magnesium acetate, 10 mM DTT, 2 mM ATP, 500 mM potassium glutamate, 0.05 mg/ml albumin and Relaxed pBR322. DNA gyrase supercoiling reactions catalyzed by S. aureus gyrase, Stop reaction by adding 30 μL of STEB and 30 μL of chloroform/isoamyl alcohol (v:v, 24:1),and then Vortex briefly ~ 5 secs and centrifuge for 1 min. after which 20 µL of this was loaded on a 1% agarose gel that was then run at ~ 75 V for approximately 2 h. The gel was stained by (0.5 mg/L) ethidium bromide in water. Fluorescent images were taken at a wavelength of 300 nm on a UV transilluminator imaging system. The fluorescence intensity of the supercoiled plasmid reaction product was quantitated using ImagQuant software (Molecular Dynamics).

In data set [3] the test system is tested bacterial strains (Gram positive or Gram negative: S. aureus, P. aeruginosa, E. coli). Description: Antibacterial MIC range over the tested bacterial strains. Type of data set: cell-based. The settings on record: range over Gram positive and Gram negative strains. How it is done:
. Standard strains of Staphylococcus aureus (ATCC 6538), Pseudomonas aeruginosa (ATCC 10,145), and Escherichia coli (ATCC 8739) were obtained from microbiological resource center, Faculty of Agriculture, Ain Shams University, Cairo, Egypt. All isolates were maintained at -70 °C in Trypticase Soya Broth (TSB, Becton, and Dickinson) with 10% glycerol. Prior to inoculation, all isolates were subcultured at 37 °C for 24 h on Trypticase Soya Agar (TSA, Becton, and Dickinson) and TSB, respectively.
as §2, with “calculated. The MIC was calculated by plotting the natural logarithm of the concentration of each dilution of the tested compounds against the square of zones of inhibition, and a regression line was drawn through the points then the antilogarithm of the intercept on the logarithm of concentration axis gave the MIC value.” for “calculated.”

For data set [4], the system named is all tested strains, either Gram-positive or Gram-negative pathogens. The arrangement: method as in doi:10.1016/j.cclet.2016.12.012, doi:10.1515/hc-2016-0125. The note with it: reference drug; cited from earlier work.
Data set [5] concerns Gram negative and Gram positive. Also on record: method as in PMID 14623004. The note with it: cited from earlier work.
Data set [6] has as its system fluoroquinolones, vancomycin, and/or linezolid-resistant strains. The note with it: cited from earlier work.
A further data set deals with Gram-positive pathogens. Also on record: method as in doi:10.1016/j.cclet.2016.12.012, doi:10.1515/hc-2016-0125. The note with it: cited from earlier work.
A further data set concerns Gram-negative pathogens. The arrangement: method as in doi:10.1016/j.cclet.2016.12.012, doi:10.1515/hc-2016-0125. The settings on record: cited from earlier work.

SMILES strings stand for the structures. In brackets after ≈: the same amount, converted by molar mass. Bounds are passed on as bounds.

Sequence of S. aureus DNA gyrase (P20831 whole entry): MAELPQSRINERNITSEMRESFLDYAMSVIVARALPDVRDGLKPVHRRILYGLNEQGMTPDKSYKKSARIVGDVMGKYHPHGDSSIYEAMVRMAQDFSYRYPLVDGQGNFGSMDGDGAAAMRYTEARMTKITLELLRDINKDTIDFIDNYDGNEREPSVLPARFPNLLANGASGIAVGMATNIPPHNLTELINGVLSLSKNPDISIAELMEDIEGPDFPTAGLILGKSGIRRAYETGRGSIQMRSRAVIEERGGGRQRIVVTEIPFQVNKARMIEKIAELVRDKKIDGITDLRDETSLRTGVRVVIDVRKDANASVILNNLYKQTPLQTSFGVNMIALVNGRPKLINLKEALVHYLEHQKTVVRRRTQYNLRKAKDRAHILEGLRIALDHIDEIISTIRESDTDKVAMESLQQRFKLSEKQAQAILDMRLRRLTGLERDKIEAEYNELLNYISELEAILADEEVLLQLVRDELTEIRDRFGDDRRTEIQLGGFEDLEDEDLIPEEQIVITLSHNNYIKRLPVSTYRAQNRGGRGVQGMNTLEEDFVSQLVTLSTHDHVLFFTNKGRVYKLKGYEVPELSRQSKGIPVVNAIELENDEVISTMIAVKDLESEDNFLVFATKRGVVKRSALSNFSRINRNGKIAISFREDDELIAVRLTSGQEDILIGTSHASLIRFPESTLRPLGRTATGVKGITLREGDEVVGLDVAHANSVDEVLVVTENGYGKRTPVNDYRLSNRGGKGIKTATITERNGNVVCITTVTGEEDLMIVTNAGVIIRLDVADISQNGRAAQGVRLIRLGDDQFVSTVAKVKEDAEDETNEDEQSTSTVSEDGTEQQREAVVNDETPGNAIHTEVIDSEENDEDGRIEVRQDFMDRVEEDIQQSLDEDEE
Sequence of S. aureus DNA gyrase (P0A0K8 whole entry): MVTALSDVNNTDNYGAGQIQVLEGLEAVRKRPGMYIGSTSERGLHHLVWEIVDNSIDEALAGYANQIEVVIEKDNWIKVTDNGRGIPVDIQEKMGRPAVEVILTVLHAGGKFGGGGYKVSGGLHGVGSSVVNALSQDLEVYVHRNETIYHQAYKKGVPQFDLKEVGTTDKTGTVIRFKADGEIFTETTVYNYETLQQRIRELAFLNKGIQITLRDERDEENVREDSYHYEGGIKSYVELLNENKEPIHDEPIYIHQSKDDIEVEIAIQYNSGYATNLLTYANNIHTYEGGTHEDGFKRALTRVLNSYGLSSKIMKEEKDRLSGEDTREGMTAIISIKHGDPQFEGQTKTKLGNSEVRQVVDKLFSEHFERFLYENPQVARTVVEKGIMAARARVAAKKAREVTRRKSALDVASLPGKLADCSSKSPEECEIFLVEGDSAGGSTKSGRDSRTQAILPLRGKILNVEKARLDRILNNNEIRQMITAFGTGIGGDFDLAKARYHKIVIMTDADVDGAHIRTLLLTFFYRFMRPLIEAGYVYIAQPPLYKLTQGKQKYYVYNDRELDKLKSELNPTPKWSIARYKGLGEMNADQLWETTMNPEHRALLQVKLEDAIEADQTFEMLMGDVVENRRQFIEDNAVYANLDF

One may read the MIC as the lowest concentration that inhibits growth of the organism. As a reminder, the IC50 is the concentration at which inhibition is half-maximal. One may read the melting point as the temperature, or range, at which the solid turns liquid. For the molecule `COc1cc(-c2nc(SCC(=O)N3CCN(c4cc5c(cc4F)c(=O)c(C(=O)O)cn5C4CC4)CC3)[nH]c(=O)c2C#N)cc(OC)c1OC` [Compound 5i, 7-(4-(2-((5-Cyano-6-oxo-4-(3,4,5-trimethoxyphenyl)-1,6-dihydropyrimidin-2-yl)thio)acetyl)piperazin-1-yl)-1-cyclopropyl-6-fluoro-4-oxo-1,4-dihydroquinoline-3-carboxylic acid], the melting point fell in the range of 284 to 285 °C. Further, the minimal inhibitory concentration (MIC) in the data set on S. aureus (ATCC 6538) was determined as 0.74 µg/mL (≈ 1.07 µM). For the same molecule, in the data set on E. coli (ATCC 8739), the MIC came to 0.63 µg/mL (≈ 0.912 µM). In data set [1], the minimal inhibitory concentration (MIC) turned out to be 0.13 µg/mL (≈ 0.188 µM). Also, the minimum inhibitory concentration (MIC) in [2] is more than 100 µg/mL. Further, the IC50 on S. aureus DNA gyrase was 1410 ± 70 nM. For the same molecule, the “MIC range against the tested bacterial strains” value in data set [3] lay within 0.06 to 1.53 µg/mL.

As to `CC1(C)S[C@@H]2[C@H](NC(=O)[C@H](N)c3ccccc3)C(=O)N2[C@H]1C(=O)O` [ampicillin], the minimum inhibitory concentration (MIC) in data set [4] is 3.9 to 250 µg/mL.

Consider `N#Cc1c(-c2ccccc2)nc(SCC(=O)N2CCN(c3cc4c(cc3F)c(=O)c(C(=O)O)cn4C3CC3)CC2)[nH]c1=O` [Compound 5a, 7-(4-(2-((5-Cyano-6-oxo-4-phenyl-1,6-dihydropyrimidin-2-yl)thio)acetyl)piperazin-1-yl)-1-cyclopropyl-6-fluoro-4-oxo-1,4-dihydroquinoline-3-carboxylic acid], for which the melting point was 237 to 240 °C. Also, the MIC in the data set on S. aureus (ATCC 6538) was 0.36 µg/mL (≈ 0.599 µM). The minimum inhibitory concentration (MIC) with E. coli (ATCC 8739) turned out to be 0.91 µg/mL (≈ 1.52 µM). In addition, the MIC in [1] turned out to be 1.53 µg/mL (≈ 2.55 µM). The MIC in [2] was found to be 6.23 µg/mL (≈ 10.4 µM). Moreover, the half-maximal inhibitory concentration (IC50) at S. aureus DNA gyrase turned out to be 4550 ± 240 nM. Moreover, the “MIC range against the tested bacterial strains” value in data set [3] was in the range of 0.06 to 1.53 µg/mL.

Take `COc1ccc(-c2nc(SCC(=O)N3CCN(c4cc5c(cc4F)c(=O)c(C(=O)O)cn5C4CC4)CC3)[nH]c(=O)c2C#N)cc1OC` [Compound 5h, 7-(4-(2-((5-Cyano-4-(3,4-dimethoxyphenyl)-6-oxo-1,6-dihydropyrimidin-2-yl)thio)acetyl)piperazin-1-yl)-1-cyclopropyl-6-fluoro-4-oxo-1,4-dihydroquinoline-3-carboxylic acid]: the melting point is 266 to 269 °C. Besides, the MIC with S. aureus (ATCC 6538) amounted to 0.34 µg/mL (≈ 0.515 µM). Also, the minimal inhibitory concentration (MIC) with E. coli (ATCC 8739) stood at 0.21 µg/mL (≈ 0.318 µM). Besides, the MIC in [1] amounted to 0.49 µg/mL (≈ 0.742 µM). Moreover, in [2], the minimal inhibitory concentration (MIC) was determined as 28.7 µg/mL (≈ 43.5 µM). At S. aureus DNA gyrase, the half-maximal inhibitory concentration (IC50) is 1460 ± 80 nM. In addition, the “MIC range against the tested bacterial strains” value in data set [3] was in the range of 0.06 to 1.53 µg/mL.

`N#Cc1c(-c2cccc(Cl)c2)nc(SCC(=O)N2CCN(c3cc4c(cc3F)c(=O)c(C(=O)O)cn4C3CC3)CC2)[nH]c1=O` [Compound 5b, 7-(4-(2-((4-(3-Chlorophenyl)-5-cyano-6-oxo-1,6-dihydropyrimidin-2-yl)thio)acetyl)piperazin-1-yl)-1-cyclopropyl-6-fluoro-4-oxo-1,4-dihydroquinoline-3-carboxylic acid]: the melting point was in the range of 248 to 251 °C. In the data set with S. aureus (ATCC 6538), the minimum inhibitory concentration (MIC) was 0.7 µg/mL (≈ 1.1 µM). In addition, the minimal inhibitory concentration (MIC) with E. coli (ATCC 8739) amounted to 0.12 µg/mL (≈ 0.189 µM). For the same molecule, the minimum inhibitory concentration (MIC) in data set [1] was 0.19 µg/mL (≈ 0.299 µM). In addition, the MIC in data set [2] was more than 100 µg/mL. Also, the half-maximal inhibitory concentration (IC50) at S. aureus DNA gyrase turned out to be 1270 ± 70 nM. The “MIC range against the tested bacterial strains” value in [3] lay in the range of 0.06 to 1.53 µg/mL.

As for `CC(=O)NC[C@H]1CN(c2ccc(N3CCN(c4cc5c(cc4F)c(=O)c(C(=O)O)cn5C4CC4)CC3)c(F)c2)C(=O)O1` [hybrid II], the results for the MIC range in [5] and in data set [6] were 0.125 to 4 µg/mL and 0.25 to 0.5 µg/mL, respectively.

On to `COc1cccc(-c2nn(CN3CCN(c4cc5c(cc4F)c(=O)c(C(=O)O)cn5C4CC4)CC3)c(=S)n2Cc2ccc(Br)cc2Cl)c1` [hybrid I], for which the values for the MIC in the data set on Gram-positive pathogens and in the data set with Gram-negative pathogens were less than 0.24 µg/mL and 0.01 to 1.32 µg/mL, respectively.

The record behind these values is PMC10415461 (Molecular Diversity, 2022).
